Source: PubChem BioAssay AID280 (DTP/NCI, 2004)
“And” between values parts separate entries of the source, which are not always exact repeats. Equal entries are not always repeated. Toxic doses and inconclusive results are not listed.

Test system: nude mice, LOX melanoma ip, survival T/C
Test: NCI In Vivo Anticancer Drug Screen. Data for tumor model Human Amelanotic Melanoma (LOX) (intraperitoneal) in NU/NU BALB/C (nude) mice
Conditions: endpoint: median survival time, higher = longer survival
Description: The antitumor activity of compounds was measured in mice bearing transplantable tumors. Survival or tumor size were measured and the results are expressed as the measurement made in the treated group (T) divided by the measurement made in the vehicle treated control group (C). The tumor model used in this assay is Human Amelanotic Melanoma (LOX) (intraperitoneal) in NU/NU BALB/C (nude) mice

[1] = dose: 75.0 mg/kg/injection, schedule: Q04DX003 (ip), vehicle: saline with Tween-80
[2] = dose: 300.0 mg/kg/injection, schedule: Q04DX003 (ip), vehicle: saline with Tween-80
[3] = dose: 12.5 mg/kg/injection, schedule: Q04DX003 (ip), vehicle: saline with Tween-80
[4] = dose: 25.0 mg/kg/injection, schedule: Q04DX003 (ip), vehicle: saline with Tween-80
[5] = dose: 150.0 mg/kg/injection, schedule: Q04DX003 (ip), vehicle: Klucel (hydroxypropylcellulose) (HPC)
[6] = dose: 600.0 mg/kg/injection, schedule: Q04DX003 (ip), vehicle: Klucel (hydroxypropylcellulose) (HPC)
[7] = dose: 50.0 mg/kg/injection, schedule: Q04DX003 (ip), vehicle: saline with Tween-80

Compound: COc1ccc2c(c1)-c1nn(CCCN(C)C)c3ccc([N+](=O)[O-])c(c13)N2
- T/C (dose: 5.8 mg/kg/injection, schedule: Q04HX006 (ip), vehicle: water): 116 % of control
- T/C (dose: 8.8 mg/kg/injection, schedule: Q04HX006 (ip), vehicle: water): 119 % of control
- T/C (dose: 13.3 mg/kg/injection, schedule: Q04DX003 (ip), vehicle: water): 117 % of control
- T/C (dose: 13.3 mg/kg/injection, schedule: Q04HX006 (ip), vehicle: water): 123 % of control and 96 % of control
- T/C (dose: 19.8 mg/kg/injection, schedule: Q04DX003 (ip), vehicle: water): 113 % of control
- T/C (dose: 19.8 mg/kg/injection, schedule: Q04HX006 (ip), vehicle: water): 123 % of control
- T/C (dose: 21.0 mg/kg/injection, schedule: Q04DX003 (ip), vehicle: water): 107 % of control
- T/C (dose: 21.6 mg/kg/injection, schedule: Q04DX003 (ip), vehicle: water): 103 % of control
- T/C (dose: 29.7 mg/kg/injection, schedule: Q04DX003 (ip), vehicle: water): 114 % of control
- T/C (dose: 29.7 mg/kg/injection, schedule: Q04HX006 (ip), vehicle: water): 123 % of control
- T/C (dose: 36.0 mg/kg/injection, schedule: Q04DX003 (ip), vehicle: water): 114 % of control and 93 % of control
- T/C (dose: 44.5 mg/kg/injection, schedule: Q04DX003 (ip), vehicle: water): 114 % of control and 117 % of control
- T/C (dose: 44.5 mg/kg/injection, schedule: Q04HX006 (ip), vehicle: water): 122 % of control
- T/C (dose: 60.0 mg/kg/injection, schedule: Q04DX003 (ip), vehicle: water): 109 % of control and 114 % of control
- T/C (dose: 66.7 mg/kg/injection, schedule: Q04DX003 (ip), vehicle: water): 118 % of control

Compound: O=c1[nH]cnc2c1nnn2C1OC(CO)C(O)C1O (stereo not given)
- T/C (dose: 180.0 mg/kg/injection, schedule: Q04DX003 (ip), vehicle: suspension in saline): 123 % of control
- T/C (dose: 833.0 mg/kg/injection, schedule: Q04DX003 (ip), vehicle: suspension in saline): 153 % of control

Compound: S=c1sc2ccccc2n1CN1CCOCC1
- T/C [1]: 102 % of control
- T/C [2]: 90 % of control

Compound: COC1=CCC23C(=O)C=CC(=O)C2(C1)C(=O)c1ccccc1C3=O (stereo not given)
- T/C (dose: 6.25 mg/kg/injection, schedule: Q04DX003 (ip), vehicle: saline with Tween-80): 101 % of control
- T/C [3]: 100 % of control
- T/C [4]: 94 % of control

Compound: CS(=O)(=O)Nc1ccc(C(=O)CCN2CCCCCC2)cc1
- T/C (dose: 37.5 mg/kg/injection, schedule: Q04DX003 (ip), vehicle: saline with Tween-80): 98 % of control
- T/C [1]: 123 % of control
- T/C (dose: 150.0 mg/kg/injection, schedule: Q04DX003 (ip), vehicle: saline with Tween-80): 93 % of control
- T/C [2]: 110 % of control

Compound: [Cl][Hg][Cl]
- T/C (dose: 0.63 mg/kg/injection, schedule: Q04DX003 (ip), vehicle: saline): 88 % of control and 96 % of control
- T/C (dose: 2.5 mg/kg/injection, schedule: Q04DX003 (ip), vehicle: saline): 95 % of control
- T/C (dose: 5.0 mg/kg/injection, schedule: Q04DX003 (ip), vehicle: saline): 91 % of control

Compound: COc1ccc(/C=C\c2cc(OC)c(OC)c(OC)c2)c(O)c1O
- T/C (dose: 6.25 mg/kg/injection, schedule: Q04DX003 (ip), vehicle: saline + Tween-80 + alcohol): 97 % of control
- T/C (dose: 12.5 mg/kg/injection, schedule: Q04DX003 (ip), vehicle: saline + Tween-80 + alcohol): 110 % of control
- T/C (dose: 25.0 mg/kg/injection, schedule: Q04DX003 (ip), vehicle: saline + Tween-80 + alcohol): 124 % of control

Compound: O=C1CNC(=O)N1CN1CCOCC1
- T/C [5]: 177 % of control
- T/C [6]: 152 % of control

Compound: CC(CNC(=O)C12CC3CC(CC(C3)C1)C2)NC(=O)C12CC3CC(CC(C3)C1)C2 (stereo not given)
- T/C (dose: 25.0 mg/kg/injection, schedule: Q04DX003 (ip), vehicle: DMSO): 101 % of control
- T/C (dose: 50.0 mg/kg/injection, schedule: Q04DX003 (ip), vehicle: DMSO): 107 % of control
- T/C (dose: 100.0 mg/kg/injection, schedule: Q04DX003 (ip), vehicle: DMSO): 101 % of control
- T/C (dose: 200.0 mg/kg/injection, schedule: Q04DX003 (ip), vehicle: DMSO): 102 % of control

Compound: OCC(O)C(O)C(O)C(O)CO (stereo not given)
- T/C (dose: 75.0 mg/kg/injection, schedule: Q04DX003 (ip), vehicle: saline): 97 % of control
- T/C (dose: 150.0 mg/kg/injection, schedule: Q04DX003 (ip), vehicle: saline): 102 % of control
- T/C (dose: 300.0 mg/kg/injection, schedule: Q04DX003 (ip), vehicle: saline): 97 % of control
- T/C (dose: 600.0 mg/kg/injection, schedule: Q04DX003 (ip), vehicle: saline): 106 % of control
- T/C (dose: 1200.0 mg/kg/injection, schedule: Q04DX003 (ip), vehicle: saline): 104 % of control

Compound: CCOC(=O)/C=C/C(=O)N1CCN(C(=O)/C=C/C(=O)OCC)C(C)C1 (stereo not given)
- T/C (dose: 75.0 mg/kg/injection, schedule: Q04DX003 (ip), vehicle: Klucel (hydroxypropylcellulose) (HPC)): 117 % of control
- T/C [5]: 109 % of control
- T/C (dose: 300.0 mg/kg/injection, schedule: Q04DX003 (ip), vehicle: Klucel (hydroxypropylcellulose) (HPC)): 108 % of control
- T/C [6]: 116 % of control

Compound: NC(=S)c1ncn(C2OC(COC=O)C(OC=O)C2OC=O)c1NC=O (stereo not given)
- T/C [7]: 109 % of control
- T/C (dose: 200.0 mg/kg/injection, schedule: Q04DX003 (ip), vehicle: saline with Tween-80): 172 % of control
- T/C (dose: 400.0 mg/kg/injection, schedule: Q04DX003 (ip), vehicle: saline with Tween-80): 188 % of control

Compound: O=C1C(=O)c2cccnc2-c2ncccc21
- T/C (dose: 2.5 mg/kg/injection, schedule: Q04DX003 (ip), vehicle: Klucel (hydroxypropylcellulose) (HPC)): 94 % of control
- T/C (dose: 5.0 mg/kg/injection, schedule: Q04DX003 (ip), vehicle: Klucel (hydroxypropylcellulose) (HPC)): 101 % of control

Compound: COc1cc2cc(c1Cl)N(C)C(=O)C[C@H](OC(=O)[C@H](C)N(C)C(C)=O)[C@]1(C)O[C@H]1[C@H](C)[C@@H]1C[C@@](O)(NC(=O)O1)[C@H](OC)C=C/C=C(\C)C2
- T/C (dose: 0.07 mg/kg/injection, schedule: Q04DX003 (ip), vehicle: Klucel (hydroxypropylcellulose) (HPC)): 304 % of control
- T/C (dose: 0.12 mg/kg/injection, schedule: Q04DX003 (ip), vehicle: Klucel (hydroxypropylcellulose) (HPC)): 304 % of control
- T/C (dose: 0.2 mg/kg/injection, schedule: Q04DX003 (ip), vehicle: Klucel (hydroxypropylcellulose) (HPC)): 304 % of control and 323 % of control
- T/C (dose: 0.33 mg/kg/injection, schedule: Q04DX003 (ip), vehicle: Klucel (hydroxypropylcellulose) (HPC)): 304 % of control
- T/C (dose: 0.4 mg/kg/injection, schedule: Q04DX003 (ip), vehicle: Klucel (hydroxypropylcellulose) (HPC)): 95 % of control
- T/C (dose: 0.56 mg/kg/injection, schedule: Q04DX003 (ip), vehicle: Klucel (hydroxypropylcellulose) (HPC)): 304 % of control

Compound: CC1=NN(c2cccc(S(=O)(=O)O)c2)C(=O)C1N=Nc1cc(Cl)cc(S(=O)(=O)O)c1O.CC1=NN(c2cccc(S(=O)(=O)O)c2)C(=O)C1N=Nc1cc(Cl)cc(S(=O)(=O)O)c1O.[Cr] (stereo not given)
- T/C (dose: 75.0 mg/kg/injection, schedule: Q04DX003 (ip), vehicle: suspension in saline): 97 % of control
- T/C (dose: 150.0 mg/kg/injection, schedule: Q04DX003 (ip), vehicle: suspension in saline): 94 % of control
- T/C (dose: 300.0 mg/kg/injection, schedule: Q04DX003 (ip), vehicle: suspension in saline): 87 % of control

Compound: CO[C@@H]1C2=CC=CC=C[C@H]2n2c(=O)n(C)c(=O)n21
- T/C (dose: 37.5 mg/kg/injection, schedule: Q04DX003 (ip), vehicle: other): 104 % of control
- T/C (dose: 75.0 mg/kg/injection, schedule: Q04DX003 (ip), vehicle: other): 105 % of control
- T/C (dose: 150.0 mg/kg/injection, schedule: Q04DX003 (ip), vehicle: other): 102 % of control

Compound: O=C(CCCN1CCC(C(O)c2ccc(F)cc2)CC1)c1ccc(F)cc1 (stereo not given)
- T/C (dose: 6.25 mg/kg/injection, schedule: Q01DX009 (ip), vehicle: saline with Tween-80): 95 % of control
- T/C (dose: 12.5 mg/kg/injection, schedule: Q01DX009 (ip), vehicle: saline with Tween-80): 107 % of control
- T/C (dose: 12.5 mg/kg/injection, schedule: Q01DX009 (oral), vehicle: saline with Tween-80): 109 % of control
- T/C (dose: 25.0 mg/kg/injection, schedule: Q01DX009 (ip), vehicle: saline with Tween-80): 101 % of control
- T/C (dose: 25.0 mg/kg/injection, schedule: Q01DX009 (oral), vehicle: saline with Tween-80): 99 % of control
- T/C (dose: 50.0 mg/kg/injection, schedule: Q01DX009 (ip), vehicle: saline with Tween-80): 115 % of control
- T/C (dose: 50.0 mg/kg/injection, schedule: Q01DX009 (oral), vehicle: saline with Tween-80): 107 % of control
- T/C (dose: 100.0 mg/kg/injection, schedule: Q01DX009 (oral), vehicle: saline with Tween-80): 107 % of control

Compound: CCOC(=O)C(N)C[S][Sn]([CH3])([CH3])[Cl] (stereo not given)
- T/C [3]: 99 % of control
- T/C [4]: 101 % of control
- T/C [7]: 104 % of control
